Source: the NIST ThermoML archive (doi:10.1021/acs.jced.7b00201)

Assay: xn = mol fraction of the nth substance listed
Conditions: 100 kPa, Liquid; for viscosity: Falling or rolling sphere viscometry; for mass density: Vibrating tube method

OCC1CC1 [cyclopropylmethanol] + CCCCC1CCCCC1
Conditions | mass density [kg/m3] | viscosity [mPa·s]
293.15 K, x1 = 0.1039 | 803.82 | 1.319
293.15 K, x1 = 0.2031 | 809.39 | 1.383
293.15 K, x1 = 0.3022 | 815.9 | 1.475
293.15 K, x1 = 0.3997 | 823.34 | 1.602
293.15 K, x1 = 0.4993 | 832.12 | 1.778
293.15 K, x1 = 0.5994 | 842.55 | 2.006
293.15 K, x1 = 0.7 | 855.1 | 2.299
293.15 K, x1 = 0.797 | 869.68 | 2.67
293.15 K, x1 = 0.9004 | 889.05 | 3.23
293.15 K, x1 = 1 | 912.99 | 4.029
298.15 K, x1 = 0.1039 | 800.02 | 1.212
298.15 K, x1 = 0.2031 | 805.52 | 1.265
298.15 K, x1 = 0.3022 | 812 | 1.343
298.15 K, x1 = 0.3997 | 819.39 | 1.451
298.15 K, x1 = 0.4993 | 828.15 | 1.601
298.15 K, x1 = 0.5994 | 838.56 | 1.79
298.15 K, x1 = 0.7 | 851.09 | 2.038
298.15 K, x1 = 0.797 | 865.66 | 2.355
298.15 K, x1 = 0.9004 | 885.02 | 2.821
298.15 K, x1 = 1 | 908.94 | 3.485
303.15 K, x1 = 0.1039 | 796.16 | 1.117
303.15 K, x1 = 0.2031 | 801.61 | 1.162
303.15 K, x1 = 0.3022 | 808.04 | 1.228
303.15 K, x1 = 0.3997 | 815.4 | 1.319
303.15 K, x1 = 0.4993 | 824.14 | 1.448
303.15 K, x1 = 0.5994 | 834.52 | 1.607
303.15 K, x1 = 0.7 | 847.04 | 1.817
303.15 K, x1 = 0.797 | 861.6 | 2.084
303.15 K, x1 = 0.9004 | 880.95 | 2.48
303.15 K, x1 = 1 | 904.85 | 3.037
308.15 K, x1 = 0.1039 | 792.28 | 1.034
308.15 K, x1 = 0.2031 | 797.68 | 1.072
308.15 K, x1 = 0.3022 | 804.06 | 1.128
308.15 K, x1 = 0.3997 | 811.39 | 1.205
308.15 K, x1 = 0.4993 | 820.09 | 1.315
308.15 K, x1 = 0.5994 | 830.45 | 1.45
308.15 K, x1 = 0.7 | 842.95 | 1.628
308.15 K, x1 = 0.797 | 857.5 | 1.855
308.15 K, x1 = 0.9004 | 876.84 | 2.192
308.15 K, x1 = 1 | 900.74 | 2.661
313.15 K, x1 = 0.1039 | 788.38 | 0.96
313.15 K, x1 = 0.2031 | 793.72 | 0.984
313.15 K, x1 = 0.3022 | 800.06 | 1.04
313.15 K, x1 = 0.3997 | 807.34 | 1.106
313.15 K, x1 = 0.4993 | 816.02 | 1.198
313.15 K, x1 = 0.5994 | 826.34 | 1.314
313.15 K, x1 = 0.7 | 838.82 | 1.466
313.15 K, x1 = 0.797 | 853.35 | 1.659
313.15 K, x1 = 0.9004 | 872.69 | 1.947
313.15 K, x1 = 1 | 896.58 | 2.344
318.15 K, x1 = 0.1039 | 784.47 | 0.895
318.15 K, x1 = 0.2031 | 789.74 | 0.919
318.15 K, x1 = 0.3022 | 796.03 | 0.963
318.15 K, x1 = 0.3997 | 803.27 | 1.019
318.15 K, x1 = 0.4993 | 811.9 | 1.098
318.15 K, x1 = 0.5994 | 822.19 | 1.197
318.15 K, x1 = 0.7 | 834.65 | 1.327
318.15 K, x1 = 0.797 | 849.17 | 1.491
318.15 K, x1 = 0.9004 | 868.5 | 1.735
318.15 K, x1 = 1 | 892.38 | 2.074
323.15 K, x1 = 0.1039 | 780.53 | 0.837
323.15 K, x1 = 0.2031 | 785.74 | 0.861
323.15 K, x1 = 0.3022 | 791.97 | 0.894
323.15 K, x1 = 0.3997 | 799.16 | 0.941
323.15 K, x1 = 0.4993 | 807.75 | 1.01
323.15 K, x1 = 0.5994 | 818.01 | 1.094
323.15 K, x1 = 0.7 | 830.44 | 1.205
323.15 K, x1 = 0.797 | 844.94 | 1.345
323.15 K, x1 = 0.9004 | 864.26 | 1.555
323.15 K, x1 = 1 | 888.13 | 1.843
328.15 K, x1 = 0.1039 | 776.57 | 0.784
328.15 K, x1 = 0.2031 | 781.71 | 0.808
328.15 K, x1 = 0.3022 | 787.87 | 0.832
328.15 K, x1 = 0.3997 | 795.01 | 0.873
328.15 K, x1 = 0.4993 | 803.56 | 0.931
328.15 K, x1 = 0.5994 | 813.78 | 1.003
328.15 K, x1 = 0.7 | 826.18 | 1.098
328.15 K, x1 = 0.797 | 840.66 | 1.22
328.15 K, x1 = 0.9004 | 859.97 | 1.399
328.15 K, x1 = 1 | 883.84 | 1.646
333.15 K, x1 = 0.1039 | 772.6 | 0.736
333.15 K, x1 = 0.2031 | 777.65 | 0.758
333.15 K, x1 = 0.3022 | 783.75 | 0.777
333.15 K, x1 = 0.3997 | 790.83 | 0.812
333.15 K, x1 = 0.4993 | 799.33 | 0.862
333.15 K, x1 = 0.5994 | 809.5 | 0.923
333.15 K, x1 = 0.7 | 821.87 | 1.005
333.15 K, x1 = 0.797 | 836.33 | 1.109
333.15 K, x1 = 0.9004 | 855.62 | 1.264
333.15 K, x1 = 1 | 879.49 | 1.476
338.15 K, x1 = 0.1039 | 768.6 | 0.697
338.15 K, x1 = 0.2031 | 773.56 | 0.718
338.15 K, x1 = 0.3022 | 779.59 | 0.733
338.15 K, x1 = 0.3997 | 786.61 | 0.767
338.15 K, x1 = 0.4993 | 795.05 | 0.801
338.15 K, x1 = 0.5994 | 805.18 | 0.853
338.15 K, x1 = 0.7 | 817.51 | 0.923
338.15 K, x1 = 0.797 | 831.94 | 1.012
338.15 K, x1 = 0.9004 | 851.21 | 1.146
338.15 K, x1 = 1 | 875.07 | 1.328
343.15 K, x1 = 0.1039 | 764.58 | 0.656
343.15 K, x1 = 0.2031 | 769.4 | 0.668
343.15 K, x1 = 0.3022 | 775.39 | 0.684
343.15 K, x1 = 0.3997 | 782.35 | 0.709
343.15 K, x1 = 0.4993 | 790.73 | 0.746
343.15 K, x1 = 0.5994 | 800.8 | 0.79
343.15 K, x1 = 0.7 | 813.09 | 0.85
343.15 K, x1 = 0.797 | 827.49 | 0.928
343.15 K, x1 = 0.9004 | 846.74 | 1.043
343.15 K, x1 = 1 | 870.62 | 1.201
